According to patent US11648289B2, “Antibacterial method” (priority 2016, dated 2023):
≈ marks a conversion by molar mass, not a printed value. Like-named read-outs stand apart in the source and are kept apart here. No end group written: not given here.

Tests used:
[1] = tested on: SP 4012; assay: organism not typed
Experimental: (§1) All the strains (see below) used in minimal inhibitory concentration (MIC) assays (Ovchinnikov et al., 2017, Front Microbiol., 8, p774, doi:10.3389/fmicb.2017.00774) were grown in BHI medium (Oxoid) at 30° C. without shaking. The tested strains were obtained from the LMG collection. […] NisinZ and micrococcin P1 were purified from source. Synthesized peptides were solubilized to concentrations of 10.0-0.1 mg/ml in 0.1% (vol/vol) trifluoroacetic acid and stored at −20° C. until use. Garvicin KS is made up of 3 peptides:
(§2) Bacteriocin activity was determined using a microtitre plate assay. The plates were incubated at 30° C. for 8 h and the growth was measured spectrophotometrically at 600 nm (A600) with 15 min intervals using SPECTROstarNano (BMG LABTECH, Germany). The MIC was defined as the bacteriocin concentration that inhibited the growth of the indicator strain by at least 50% in 200 μl culture (i.e., 50% of the turbidity of the control culture without bacteriocin).

[2] = tested on: SP 4013; assay: organism not typed
Experimental: as §1, §2

[3] = tested on: SP 4014; assay: organism not typed
Experimental: as §1, §2

[4] = tested on: KAVA; assay: MIC microtitre plate assay, pathogenic isolates; assay type: cell-based
Experimental: The tested strains were obtained from the LMG collection. […] NisinZ and micrococcin P1 were purified from source. […] Garvicin KS is made up of 3 peptides:
Bacteriocin activity was determined using a microtitre plate assay. The plates were incubated at 30° C. for 8 h and the growth was measured spectrophotometrically at 600 nm (A600) with 15 min intervals using SPECTROstarNano (BMG LABTECH, Germany).

[5] = tested on: SH 4015; assay: microbe, parasite or virus in culture
Experimental: as §1, §2

[6] = tested on: SH 4016; assay: microbe, parasite or virus in culture
Experimental: as §1, §2

[7] = tested on: Sa 3242; assay: microbe, parasite or virus in culture
Experimental: as §1, §2

[8] = tested on: Sa 3328; assay: microbe, parasite or virus in culture
Experimental: as §1, §2

[9] = tested on: Sa ATCC 33591; assay: microbe, parasite or virus in culture
Experimental: as §1, §2

[10] = tested on: Sa3323; assay: microbe, parasite or virus in culture
Experimental: as §1, §2

[11] = tested on: Sa3324; assay: microbe, parasite or virus in culture
Experimental: as §1, §2

[12] = tested on: E. faecalis (2); settings: 2
Experimental: as §1, §2

[13] = tested on: E. faecium (2)
Experimental: as §1, §2

[14] = tested on: E. hirae (4)
Experimental: as §1, §2

[15] = tested on: S. pseudointermedius (3)
Experimental: as §1, §2

[16] = tested on: EntEJ97/EntK1 resistant mutants of E. faecalis and E. faecium; assay: Challenge of EntEJ97/EntK1 resistant mutants with non-related bacteriocins; assay type: cell-based; settings: all HR and LR mutants, compared to WT
Text: To analyze whether this active site is important for bacteriocin sensitivity, we changed the invariant residues in this motif —H18-E19-F20-G21-H22—one by one and altogether in the enterococcal RseP (invariant residues underlined) to alanine and then assessed for bacteriocin sensitivity.

[17] = tested on: Listeria spp. (3)
Experimental: as §1, §2

MLAKIKAMIKKFPNPYTLAAKLTTYEIAWFKNKHGYYPWEIPRC [EJ-K1 hybrid]
MIC [1]: >50 µg/mL
MIC [2]: >50 µg/mL
MIC [3]: >50 µg/mL
MIC ([4]; KAVA): >50 µg/mL
MIC [5]: 50 µg/mL
MIC [6]: 50 µg/mL
MIC [7]: 12.5 µg/mL
MIC [8]: 6.25 µg/mL
MIC ([9]; ATCC 33591): >50 µg/mL
MIC [10]: 3.2 to 6.25 µg/mL
MIC [11]: 12.5 µg/mL
MIC [12]: 25 to 50 µg/mL
MIC [13]; 2: 3.15 µg/mL
MIC [14]: 3.2 to 6.3 µg/mL
MIC [15]: 50 µg/mL

C/C=C(\NC(=O)c1csc(-c2csc(-c3ccc4c(n3)-c3csc(n3)[C@H]([C@@H](C)O)NC(=O)c3csc(n3)[C@H](C(C)C)NC(=O)c3csc(n3)/C(=C/C)NC(=O)[C@H]([C@@H](C)O)NC(=O)c3csc-4n3)n2)n1)C(=O)NC[C@@H](C)O [micrococcinP1, Micrococcin P1, reference compound]
MIC [1]: 0.4 µg/mL (≈ 0.35 µM)
MIC [2]: 0.4 µg/mL (≈ 0.35 µM)
MIC [3]: 0.8 µg/mL (≈ 0.699 µM)
MIC [4]: > 12.5 µg/mL
MIC ([5]; Staphylococcus haemolyticus): 1.6 µg/mL (≈ 1.4 µM)
MIC ([6]; Staphylococcus haemolyticus): 1.6 µg/mL (≈ 1.4 µM)
MIC ([7]; Staphylococcus aureus, 3242): 0.2 µg/mL (≈ 0.175 µM)
MIC ([8]; Staphylococcus aureus, 3328): 0.1 µg/mL (≈ 0.0874 µM)
MIC ([9]; Staphylococcus aureus, ATCC33591): 0.4 µg/mL (≈ 0.35 µM)
MIC ([10]; Staphylococcus aureus): 0.1 µg/mL (≈ 0.0874 µM)
MIC ([11]; Staphylococcus aureus): 0.1 µg/mL (≈ 0.0874 µM)

garvicin ML
sensitivity of EntEJ97/EntK1 resistant mutants to non-related bacteriocin [16]: as sensitive as the WT strains

MKFKFNPTGTIVKKLTQYEINWYKQQYGRYPWERPVA [K1-EJ hybrid]
MIC [1]: 25 µg/mL
MIC [2]: 12.5 µg/mL
MIC [3]: 12.5 µg/mL
MIC ([4]; KAVA): >50 µg/mL
MIC [5]: 0.8 µg/mL
MIC [6]: 0.8 to 1.6 µg/mL
MIC [7]: 3.1 µg/mL
MIC [8]: 3.1 µg/mL
MIC ([9]; ATCC 33591): >50 µg/mL
MIC [10]: 3.2 to 6.25 µg/mL
MIC [11]: 6.25 µg/mL
MIC [12]: 1.6 to 3.1 µg/mL
MIC ([13]; E. faecium (2), Table 6B): <0.05 to 0.4 µg/mL
MIC [14]: 0.1 to 0.4 µg/mL
MIC [17]: 6.25 to 25 µg/mL
MIC [15]: 12.5 to 25 µg/mL

MIKKFPNPYTLAAKLTTYEINWYKQQYGRYPWERPVA [EntEJ97short]
MIC [1]: 3.1 µg/mL
MIC [2]: 3.1 µg/mL
MIC [3]: 1.6 to 3.1 µg/mL
MIC ([4]; KAVA): >50 µg/mL
MIC [5]: 1.6 to 3.1 µg/mL
MIC [6]: 1.6 to 3.1 µg/mL
MIC [7]: 12.5 µg/mL
MIC [8]: 3.1 µg/mL
MIC ([9]; ATCC 33591): >50 µg/mL
MIC [10]: 3.1 to 6.25 µg/mL
MIC [11]: 6.25 µg/mL
MIC [12]: 1.6 µg/mL
MIC [13]; 2: 12.5 to 25 µg/mL
MIC [14]: 0.1 to 0.4 µg/mL
MIC [17]: >50 µg/mL
MIC [15]: 1.6 to 31 µg/mL

C=C(NC(=O)[C@@H](NC(=O)[C@H](Cc1c[nH]cn1)NC(=O)[C@@H](NC(=O)[C@H](CO)NC(=O)[C@@H]1CS[C@@H](C)[C@H]2NC(=O)[C@H](C)NC(=O)[C@H](NC(=O)[C@H](CCCCN)NC(=O)[C@H](CCSC)NC(=O)[C@H](CC(N)=O)NC(=O)[C@@H]3CS[C@@H](C)[C@@H](NC(=O)[C@H](CCCCN)NC(=O)[C@@H]4CS[C@@H](C)[C@@H](NC(=O)[C@@H]5CSC[C@@H](NC(=O)/C(=C/C)NC(=O)[C@@H](N)[C@@H](C)CC)C(=O)N[C@@H]([C@@H](C)CC)C(=O)NC(=C)C(=O)N[C@@H](CC(C)C)C(=O)N5)C(=O)N5CCC[C@H]5C(=O)NCC(=O)N4)C(=O)NCC(=O)N[C@@H](C)C(=O)N[C@@H](CC(C)C)C(=O)N[C@@H](CCSC)C(=O)NCC(=O)N3)[C@H](C)SC[C@H](NC2=O)C(=O)N[C@@H](CC(N)=O)C(=O)N1)[C@@H](C)CC)C(C)C)C(=O)N[C@@H](CCCCN)C(=O)O [NisinZ, reference compound]
MIC ([1]; SP 4012 (S. pseudointermedius)): 0.4 µg/mL (≈ 0.12 µM)
MIC ([2]; SP 4013 (S. pseudointermedius)): 0.4 µg/mL (≈ 0.12 µM)
MIC ([3]; SP 4014 (S. pseudointermedius)): 0.4 µg/mL (≈ 0.12 µM)
MIC ([5]; SH 4015 (S. haemolyticus)): 1.6 to 3.1 µg/mL
MIC ([6]; SH 4016 (S. haemolyticus)): 1.6 to 3.1 µg/mL
MIC ([7]; Sa 3242 (S. aureus)): 3.1 µg/mL (≈ 0.931 µM)
MIC ([8]; Sa 3328 (S. aureus)): 0.8 µg/mL (≈ 0.24 µM)
MIC ([9]; Sa ATCC 33591 (S. aureus)): 0.8 µg/mL (≈ 0.24 µM)
MIC ([10]; Sa3323 (S. aureus)): 6.25 µg/mL (≈ 1.88 µM)
MIC ([11]; Sa3324 (S. aureus)): 1.6 µg/mL (≈ 0.48 µM)

B1: GarKS: Garvicin KS is made up of 3 peptides (SEQ ID NO:43, 44, 45) (peptide, listed as Lactococcus garvieae)
chain 1: MGAIIKAGAKIVGKGVLGGGASWLGWNVGEKIWK
chain 2: MGAIIKAGAKIIGKGLLGGAAGGATYGGLKKIFG
chain 3: MGAIIKAGAKIVGKGALTGGGVWLAEKLFGGK
MIC ([1]; SP 4012 (S. pseudointermedius)): 6.25 µg/mL
MIC ([2]; SP 4013 (S. pseudointermedius)): 6.25 µg/mL
MIC ([3]; SP 4014 (S. pseudointermedius)): 6.25 µg/mL
MIC ([4]; KAVA): 6.25 to 12.5 µg/mL
MIC ([5]; SH 4015 (S. haemolyticus)): 6.25 µg/mL
MIC ([6]; SH 4016 (S. haemolyticus)): 6.25 µg/mL
MIC ([7]; Sa 3242 (S. aureus)): 3.1 µg/mL
MIC ([8]; Sa 3328 (S. aureus)): 3.1 µg/mL
MIC ([9]; Sa ATCC 33591 (S. aureus)): 12.5 µg/mL
MIC ([10]; Sa3323 (S. aureus)): 6.25 µg/mL
MIC ([11]; Sa3324 (S. aureus)): 6.25 µg/mL
